{"source": "ChEMBL document CHEMBL6134930", "about": "“Discovery of AB801, a Potent and Selective Inhibitor of AXL Receptor Tyrosine Kinase for Use in Cancer Therapy” (J Med Chem, 2025)", "key": {"[1]": {"molecular_target": "T1, Tyrosine-protein kinase receptor UFO (Homo sapiens, UniProt P30530)", "T1 sequence (P30530 whole entry)": "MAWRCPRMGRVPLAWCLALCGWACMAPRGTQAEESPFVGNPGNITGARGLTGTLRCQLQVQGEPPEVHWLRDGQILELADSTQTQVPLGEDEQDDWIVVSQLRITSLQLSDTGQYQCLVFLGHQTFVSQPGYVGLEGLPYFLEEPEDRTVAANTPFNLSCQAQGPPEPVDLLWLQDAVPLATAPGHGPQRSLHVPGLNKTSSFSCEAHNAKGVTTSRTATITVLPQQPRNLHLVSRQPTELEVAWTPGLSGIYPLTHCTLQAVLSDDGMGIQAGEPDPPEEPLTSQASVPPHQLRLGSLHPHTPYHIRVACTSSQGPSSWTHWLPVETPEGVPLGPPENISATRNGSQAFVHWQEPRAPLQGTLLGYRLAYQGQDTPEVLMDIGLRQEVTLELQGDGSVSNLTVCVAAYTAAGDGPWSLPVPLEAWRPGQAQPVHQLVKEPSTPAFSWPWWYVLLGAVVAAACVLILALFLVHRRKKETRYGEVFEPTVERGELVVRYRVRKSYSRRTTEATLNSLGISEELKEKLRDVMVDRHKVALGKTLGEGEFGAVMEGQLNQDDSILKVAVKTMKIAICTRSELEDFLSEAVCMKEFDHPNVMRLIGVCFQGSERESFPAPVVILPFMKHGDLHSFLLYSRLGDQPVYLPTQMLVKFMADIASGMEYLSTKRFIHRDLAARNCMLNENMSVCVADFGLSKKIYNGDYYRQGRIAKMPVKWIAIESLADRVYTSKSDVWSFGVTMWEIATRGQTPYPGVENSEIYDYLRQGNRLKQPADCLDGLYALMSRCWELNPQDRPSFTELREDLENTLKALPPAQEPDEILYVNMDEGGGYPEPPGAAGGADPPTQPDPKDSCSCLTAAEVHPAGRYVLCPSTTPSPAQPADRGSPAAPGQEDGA", "experiment": "Inhibition of human AXL measured after 150 mins by ATP-competitive HTRF based biochemical assay"}, "[2]": {"experiment": "AUCinf in Sprague-Dawley rat at 2 mg/kg, po measured up to 8 hrs by LC-MS/MS analysis", "format": "ADME, organism-based", "conditions": "in vivo"}, "[3]": {"experiment": "Efflux ratio in human Caco-2 cells", "format": "ADME, cell-based"}, "[4]": {"molecular_target": "T1, Tyrosine-protein kinase receptor UFO", "experiment": "Inhibition of autophosphorylation AXL (unknown origin) expressed in HEK293 cells assessed as NanoLuc activity associated with phosphorylated proteins measured after 1 hr incubation by intracellular pAXL-ELISA", "format": "cell-based"}, "[5]": {"experiment": "Clearance in CD-1 mouse at 0.5 mg/kg, iv measured up to 24 hrs by LC-MS/MS analysis", "format": "ADME, organism-based", "conditions": "in vivo"}, "[6]": {"experiment": "Clearance in cynomolgus monkey at 0.5 mg/kg, iv measured up to 24 hrs by LC-MS/MS analysis", "format": "ADME, organism-based, Macaca fascicularis", "conditions": "in vivo"}, "CYP3A4": {"molecular_target": "CYP3A4 (Homo sapiens, UniProt P08684)", "sequence (P08684 whole entry)": "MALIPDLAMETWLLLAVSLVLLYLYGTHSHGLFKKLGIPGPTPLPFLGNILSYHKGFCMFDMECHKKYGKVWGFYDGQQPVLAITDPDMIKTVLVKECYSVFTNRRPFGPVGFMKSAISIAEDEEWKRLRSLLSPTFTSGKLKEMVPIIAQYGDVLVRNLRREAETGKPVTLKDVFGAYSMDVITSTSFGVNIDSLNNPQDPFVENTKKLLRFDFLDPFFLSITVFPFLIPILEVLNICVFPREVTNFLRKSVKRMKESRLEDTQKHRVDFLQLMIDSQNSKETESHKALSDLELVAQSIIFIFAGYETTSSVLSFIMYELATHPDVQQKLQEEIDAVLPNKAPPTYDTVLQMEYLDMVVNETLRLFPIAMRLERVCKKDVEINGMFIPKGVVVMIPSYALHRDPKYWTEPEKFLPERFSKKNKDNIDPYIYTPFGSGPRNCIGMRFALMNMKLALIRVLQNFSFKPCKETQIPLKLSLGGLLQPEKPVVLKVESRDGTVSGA", "experiment": "Time dependent inhibition of CYP3A4 (unknown origin) using midazolam as substrate at 30 uM measured after 30 mins relative to control", "format": "ADME", "conditions": "probe midazolam, read-out: TDI"}, "Cytochrome P450 1A2": {"molecular_target": "T2, Cytochrome P450 1A2 (Homo sapiens, UniProt P05177)", "T2 sequence (P05177 whole entry)": "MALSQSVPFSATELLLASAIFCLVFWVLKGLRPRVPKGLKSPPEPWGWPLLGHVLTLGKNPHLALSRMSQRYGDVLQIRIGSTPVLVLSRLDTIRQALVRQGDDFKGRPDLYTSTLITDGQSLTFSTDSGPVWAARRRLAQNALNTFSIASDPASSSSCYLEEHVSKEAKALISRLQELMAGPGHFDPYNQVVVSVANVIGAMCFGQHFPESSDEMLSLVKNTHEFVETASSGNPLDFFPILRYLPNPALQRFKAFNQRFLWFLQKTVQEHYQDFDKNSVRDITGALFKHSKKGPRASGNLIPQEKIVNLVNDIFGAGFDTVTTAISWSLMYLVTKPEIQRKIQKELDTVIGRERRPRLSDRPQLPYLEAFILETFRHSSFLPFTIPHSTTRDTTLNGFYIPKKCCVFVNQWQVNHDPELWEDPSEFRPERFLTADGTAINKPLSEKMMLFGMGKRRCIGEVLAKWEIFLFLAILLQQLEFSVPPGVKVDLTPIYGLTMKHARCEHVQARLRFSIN", "experiment": "Inhibition of CYP1A2 (unknown origin) measured after 30 mins", "format": "ADME"}, "[7]": {"experiment": "Selectivity ratio, ratio of Ki for MERTK (unknown origin) to Ki for AXL (unknown origin)"}, "[8]": {"experiment": "Selectivity ratio, ratio of Ki for TYRO3 (unknown origin) to Ki for AXL (unknown origin)"}, "[9]": {"experiment": "Selectivity ratio, ratio of Ki for HPK1 (unknown origin) to Ki for AXL (unknown origin)"}, "786-0 [10]": {"system": "786-0", "experiment": "Anti-tumor activity against human 786-0 cells xenografted in mouse model assessed as tumor growth inhibition at 30 mg/kg, po once daily for 15 days", "format": "functional, organism-based", "conditions": "time 15.0 day"}, "786-0 [11]": {"system": "786-0", "experiment": "Anti-tumor activity against human 786-0 cells xenografted in mouse model assessed as tumor growth inhibition in presence of sunitinib at 10 mg/kg, po once daily for 15 days", "format": "functional, organism-based", "conditions": "time 15.0 day"}, "786-0 [12]": {"system": "786-0", "experiment": "Anti-tumor activity against human 786-0 cells xenografted in mouse model assessed as reduction in tumor volume in presence of sunitinib at 10 mg/kg, po once daily for 15 days", "format": "functional, organism-based", "conditions": "time 15.0 day"}, "[13]": {"experiment": "Toxicity in mouse xenografted with human 786-0 cells assessed as body weight at 30 mg/kg, po once daily for 15 days", "format": "organism-based", "conditions": "in vivo, 360 h, time 15 day"}, "[14]": {"experiment": "Half life in human (healthy individuals) at 10 mg, single oral dose", "format": "ADME", "conditions": "in vivo"}, "[15]": {"experiment": "Half life in human (healthy individuals) at 30 mg, single oral dose", "format": "ADME", "conditions": "in vivo"}, "[16]": {"experiment": "Half life in human (healthy individuals) at 90 mg, single oral dose", "format": "ADME", "conditions": "in vivo"}, "[17]": {"experiment": "Tmax in human (healthy individuals) at 270 mg, single oral dose", "format": "ADME", "conditions": "in vivo"}, "[18]": {"experiment": "Cmax in human (healthy individuals) at 90 mg, single oral dose measured uo to 120 hrs", "format": "ADME", "conditions": "in vivo"}, "[19]": {"experiment": "AUC (0 to 120 hrs) in human (healthy individuals) at 30 mg, single oral dose", "format": "ADME", "conditions": "in vivo"}}, "note": "Activity calls are given as the source filed them. The rule behind the calls is not given here."}
{"smiles": "Cc1cccnc1-c1ccc(-c2n[nH]c3ncc(-c4ccc5c(c4)CC[C@@H](N4C6COCC4C6)CC5)cc23)nc1", "values": [{"measurement": "IC50", "setting": "[1]", "value": 1.8, "unit": "nM"}, {"measurement": "AUC(0-inf)", "setting": "[2]", "value": 1800, "unit": "ng·h/mL"}, {"measurement": "efflux ratio", "setting": "[3]", "value": 1.9}, {"measurement": "IC50", "setting": "[4]", "value": 69, "unit": "nM"}, {"measurement": "clearance", "setting": "[5]", "value": 8.83, "unit": "mL/min/kg"}, {"measurement": "clearance", "setting": "[6]", "value": 12.7, "unit": "mL/min/kg"}, {"measurement": "inhibition at 0.5 h, 30 µM", "setting": "CYP3A4", "value": 16, "unit": "%"}, {"measurement": "IC50", "setting": "Cytochrome P450 1A2", "value": "> 100000", "unit": "nM"}, {"measurement": "Ratio Ki", "setting": "[7]", "value": 880}, {"measurement": "Ratio Ki", "setting": "[8]", "value": 1400}, {"measurement": "Ratio Ki", "setting": "[9]", "value": 280}, {"measurement": "Activity", "setting": "786-0 [10]", "value": "inactive"}, {"measurement": "Activity", "setting": "786-0 [11]", "value": "Active"}, {"measurement": "Activity", "setting": "786-0 [12]", "value": "Active"}, {"measurement": "Activity", "setting": "[13]", "value": "Non-toxic"}, {"measurement": "half-life", "setting": "[14]", "value": 70, "unit": "h"}, {"measurement": "half-life", "setting": "[15]", "value": 72, "unit": "h"}, {"measurement": "half-life", "setting": "[16]", "value": 54, "unit": "h"}, {"measurement": "Tmax", "setting": "[17]", "value": 8, "unit": "h"}, {"measurement": "Cmax", "setting": "[18]", "value": 40, "unit": "ng/mL"}, {"measurement": "AUC(0-t)", "setting": "[19]", "value": 614, "unit": "ng·h/mL"}]}
